Reference: ChEMBL document CHEMBL3044875, “Synthesis and antimicrobial activity of some bisoctahydroxanthene-1,8-dione derivatives” (2011)
Calls of active or inactive are those of the source. No cut-off for these calls is given here.

Tests used:
[1] = test system: Staphylococcus epidermidis; experiment: Antibacterial activity against Staphylococcus epidermidis ATCC 12228 at 140 ug/disk after 24 hr by disk diffusion method; format: functional
Staphylococcus aureus [2] = experiment: Antibacterial activity against Staphylococcus aureus ATCC 25923 at 20 ug/disc after 24 hr by disk diffusion method; format: functional
Escherichia coli [3] = experiment: Antibacterial activity against Escherichia coli ATCC 25922 at 40 ug/disk after 24 hr by disk-diffusion method; format: functional
Escherichia coli [4] = experiment: Antibacterial activity against Escherichia coli ATCC 25922 at 20 ug/disk after 24 hr by disk-diffusion method; format: functional
Nocardia [5] = experiment: Antibacterial activity against Nocardia canis at 20 ug/disk after 24 hr by disk diffusion method; format: functional, organism-based
Bacillus cereus [6] = experiment: Antibacterial activity against Bacillus cereus NRRL 3711 at 140 ug/disk after 24 hr by disk diffusion method; format: functional
Escherichia coli [7] = experiment: Antibacterial activity against Escherichia coli ATCC 25922 at 140 ug/disk after 24 hr by disk-diffusion method; format: functional
Staphylococcus aureus [8] = experiment: Antibacterial activity against Staphylococcus aureus ATCC 25923 at 40 ug/disc after 24 hr by disk diffusion method; format: functional
Candida albicans [9] = experiment: Antifungal activity against Candida albicans ATCC 10231 at 140 ug/disk after 48 hr by disk-diffusion method; format: functional; settings: for zone of inhibition at 140 µg/disc: ATCC 10231, 48 h, read-out: DIZ
Pseudomonas aeruginosa [10] = experiment: Antibacterial activity against Pseudomonas aeruginosa ATCC 27853 at 40 ug/disk after 24 hr by disk-diffusion method; format: functional, organism-based
Nocardia [11] = experiment: Antibacterial activity against Nocardia canis at 40 ug/disk after 24 hr by disk diffusion method; format: functional
Bacillus cereus [12] = experiment: Antibacterial activity against Bacillus cereus NRRL 3711 at 20 ug/disk after 24 hr by disk diffusion method; format: functional
Candida albicans [13] = experiment: Antifungal activity against Candida albicans ATCC 10231 at 40 ug/disk after 48 hr by disk-diffusion method; format: functional; settings: for zone of inhibition at 40 µg/disc: ATCC 10231, 48 h, read-out: DIZ
Aspergillus niger [14] = experiment: Antifungal activity against Aspergillus niger ATCC 10949 at 40 ug/disk after 72 hr by disk diffusion method; format: functional, organism-based
Rhodotorula mucilaginosa [15] = experiment: Antifungal activity against Rhodotorula mucilaginosa at 140 ug/disk after 48 hr by disk diffusion method; format: functional
Rhodotorula mucilaginosa [16] = experiment: Antifungal activity against Rhodotorula mucilaginosa at 20 ug/disk after 48 hr by disk diffusion method; format: functional
Proteus vulgaris [17] = experiment: Antibacterial activity against Proteus vulgaris NRRL-B-123 at 40 ug/disk after 24 hr by disk diffusion method; format: functional, organism-based
Pseudomonas aeruginosa [18] = experiment: Antibacterial activity against Pseudomonas aeruginosa ATCC 27853 at 140 ug/disk after 24 hr by disk-diffusion method; format: functional, organism-based
Candida albicans [19] = experiment: Antifungal activity against Candida albicans ATCC 10231 at 20 ug/disk after 48 hr by disk-diffusion method; format: functional; settings: for zone of inhibition at 20 µg/disc: ATCC 10231, 48 h, read-out: DIZ
Staphylococcus aureus [20] = experiment: Antibacterial activity against Staphylococcus aureus ATCC 25923 at 140 ug/disc after 24 hr by disk diffusion method; format: functional
[21] = test system: Staphylococcus epidermidis; experiment: Antibacterial activity against Staphylococcus epidermidis ATCC 12228 at 20 ug/disk after 24 hr by disk diffusion method; format: functional, organism-based
Nocardia [22] = experiment: Antibacterial activity against Nocardia canis at 140 ug/disk after 24 hr by disk diffusion method; format: functional
Proteus vulgaris [23] = experiment: Antibacterial activity against Proteus vulgaris NRRL-B-123 at 140 ug/disk after 24 hr by disk diffusion method; format: functional, organism-based
Bacillus cereus [24] = experiment: Antibacterial activity against Bacillus cereus NRRL 3711 at 40 ug/disk after 24 hr by disk diffusion method; format: functional
Pseudomonas aeruginosa [25] = experiment: Antibacterial activity against Pseudomonas aeruginosa ATCC 27853 at 20 ug/disk after 24 hr by disk-diffusion method; format: functional, organism-based
Aspergillus niger [26] = experiment: Antifungal activity against Aspergillus niger ATCC 10949 at 20 ug/disk after 72 hr by disk diffusion method; format: functional, organism-based
Rhodotorula mucilaginosa [27] = experiment: Antifungal activity against Rhodotorula mucilaginosa at 40 ug/disk after 48 hr by disk diffusion method; format: functional
Proteus vulgaris [28] = experiment: Antibacterial activity against Proteus vulgaris NRRL-B-123 at 20 ug/disk after 24 hr by disk diffusion method; format: functional, organism-based
Aspergillus niger [29] = experiment: Antifungal activity against Aspergillus niger ATCC 10949 at 140 ug/disk after 72 hr by disk diffusion method; format: functional; settings: for zone of inhibition at 140 µg/disc: ATCC 10949, 72 h, read-out: DIZ
[30] = test system: Staphylococcus epidermidis; experiment: Antibacterial activity against Staphylococcus epidermidis ATCC 12228 at 40 ug/disk after 24 hr by disk diffusion method; format: functional

SMILES | diameter of the inhibition zone (DIZ) [1] | diameter of the inhibition zone (DIZ) (Staphylococcus aureus [2]) | diameter of the inhibition zone (DIZ) (Escherichia coli [3]) | diameter of the inhibition zone (DIZ) (Escherichia coli [4]) | diameter of the inhibition zone (DIZ) (Nocardia [5]) | diameter of the inhibition zone (DIZ) (Escherichia coli [7]) | diameter of the inhibition zone (DIZ) (Staphylococcus aureus [8]) | diameter of the inhibition zone (DIZ) (Pseudomonas aeruginosa [10]) | diameter of the inhibition zone (DIZ) (Nocardia [11]) | diameter of the inhibition zone (DIZ) (Aspergillus niger [14]) | diameter of the inhibition zone (DIZ) (Rhodotorula mucilaginosa [16]) | diameter of the inhibition zone (DIZ) (Proteus vulgaris [17]) | diameter of the inhibition zone (DIZ) (Pseudomonas aeruginosa [18]) | diameter of the inhibition zone (DIZ) (Staphylococcus aureus [20]) | diameter of the inhibition zone (DIZ) [21] | diameter of the inhibition zone (DIZ) (Nocardia [22]) | diameter of the inhibition zone (DIZ) (Proteus vulgaris [23]) | diameter of the inhibition zone (DIZ) (Pseudomonas aeruginosa [25]) | diameter of the inhibition zone (DIZ) (Aspergillus niger [26]) | diameter of the inhibition zone (DIZ) (Rhodotorula mucilaginosa [27]) | other results
CC1(C)CCC2=C(C1=O)C(c1ccc(C3C4=C(CCC(C)(C)C4=O)OC4=C3C(=O)C(C)(C)CC4)cc1)C1=C(CCC(C)(C)C1=O)O2 | inactive | inactive | inactive | inactive | inactive | inactive | inactive | inactive | inactive | inactive | inactive | inactive | inactive | inactive | inactive | inactive | inactive | inactive | inactive | inactive | diameter of the inhibition zone (DIZ) (Bacillus cereus [6]): inactive; diameter of the inhibition zone (DIZ) (Candida albicans [9]): inactive; diameter of the inhibition zone (DIZ) (Bacillus cereus [12]): inactive; diameter of the inhibition zone (DIZ) (Candida albicans [13]): inactive; diameter of the inhibition zone (DIZ) (Rhodotorula mucilaginosa [15]): inactive; diameter of the inhibition zone (DIZ) (Candida albicans [19]): inactive; diameter of the inhibition zone (DIZ) (Bacillus cereus [24]): inactive; diameter of the inhibition zone (DIZ) (Proteus vulgaris [28]): inactive; zone of inhibition at 140 µg/disc (Aspergillus niger [29]): 7 mm; diameter of the inhibition zone (DIZ) [30]: inactive
COc1ccc(C2CC(=O)C3=C(C2)OC2=C(C(=O)CC(c4ccc(OC)c(OC)c4)C2)C3c2ccc(C3C4=C(CC(c5ccc(OC)c(OC)c5)CC4=O)OC4=C3C(=O)CC(c3ccc(OC)c(OC)c3)C4)cc2)cc1OC (stereo not given) | inactive | inactive | inactive | inactive | inactive | inactive | inactive | inactive | inactive | inactive | inactive | inactive | inactive | inactive | inactive | inactive | inactive | inactive | inactive | inactive | diameter of the inhibition zone (DIZ) (Bacillus cereus [6]): inactive; zone of inhibition at 140 µg/disc (Candida albicans [9]): 7 mm; diameter of the inhibition zone (DIZ) (Bacillus cereus [12]): inactive; zone of inhibition at 40 µg/disc (Candida albicans [13]): 7 mm; diameter of the inhibition zone (DIZ) (Rhodotorula mucilaginosa [15]): inactive; diameter of the inhibition zone (DIZ) (Candida albicans [19]): inactive; diameter of the inhibition zone (DIZ) (Bacillus cereus [24]): inactive; diameter of the inhibition zone (DIZ) (Proteus vulgaris [28]): inactive; diameter of the inhibition zone (DIZ) (Aspergillus niger [29]): inactive; diameter of the inhibition zone (DIZ) [30]: inactive
O=C1CC(c2ccccc2)CC2=C1C(c1ccc(C3C4=C(CC(c5ccccc5)CC4=O)OC4=C3C(=O)CC(c3ccccc3)C4)cc1)C1=C(CC(c3ccccc3)CC1=O)O2 (stereo not given) | inactive | inactive | inactive | inactive | inactive | inactive | inactive | inactive | inactive | inactive | inactive | inactive | inactive | inactive | inactive | inactive | inactive | inactive | inactive | inactive | zone of inhibition at 140 µg/disc (Bacillus cereus [6]; NRRL 3711, 24 h, read-out: DIZ): 10 mm; zone of inhibition at 140 µg/disc (Candida albicans [9]): 8 mm; zone of inhibition at 20 µg/disc (Bacillus cereus [12]; NRRL 3711, 24 h, read-out: DIZ): 8 mm; zone of inhibition at 40 µg/disc (Candida albicans [13]): 8 mm; zone of inhibition at 140 µg/disc (Rhodotorula mucilaginosa [15]; read-out: DIZ): 7 mm; zone of inhibition at 20 µg/disc (Candida albicans [19]): 7 mm; zone of inhibition at 40 µg/disc (Bacillus cereus [24]; NRRL 3711, 24 h, read-out: DIZ): 10 mm; diameter of the inhibition zone (DIZ) (Proteus vulgaris [28]): inactive; diameter of the inhibition zone (DIZ) (Aspergillus niger [29]): inactive; diameter of the inhibition zone (DIZ) [30]: inactive
COc1ccc(C2CC(=O)C3=C(C2)OC2=C(C(=O)CC(c4ccc(OC)c(OC)c4)C2)C3c2cccc(C3C4=C(CC(c5ccc(OC)c(OC)c5)CC4=O)OC4=C3C(=O)CC(c3ccc(OC)c(OC)c3)C4)c2)cc1OC (stereo not given) | inactive | inactive | inactive | inactive | inactive | inactive | inactive | inactive | inactive | inactive | inactive | inactive | inactive | inactive | inactive | inactive | inactive | inactive | inactive | inactive | diameter of the inhibition zone (DIZ) (Bacillus cereus [6]): inactive; zone of inhibition at 140 µg/disc (Candida albicans [9]): 7 mm; diameter of the inhibition zone (DIZ) (Bacillus cereus [12]): inactive; zone of inhibition at 40 µg/disc (Candida albicans [13]): 7 mm; diameter of the inhibition zone (DIZ) (Rhodotorula mucilaginosa [15]): inactive; zone of inhibition at 20 µg/disc (Candida albicans [19]): 7 mm; diameter of the inhibition zone (DIZ) (Bacillus cereus [24]): inactive; diameter of the inhibition zone (DIZ) (Proteus vulgaris [28]): inactive; zone of inhibition at 140 µg/disc (Aspergillus niger [29]): 7 mm; diameter of the inhibition zone (DIZ) [30]: inactive
